The source of these data is patent publication US20230077362A1 (CORTEVA AGRISCIENCE LLC, priority 2019, published 2023).

The subject of data set [1] is Beet Armyworm (Spodoptera exigua) ("BAW"), second instar larvae. As to the kind of experiment: Bioassay on beet armyworm (BAW), 128-well diet tray assay. The class given is in vivo. As to conditions: for pest or weed control at 50 µg/cm2: Spodoptera exigua; for BAW rating: C = not tested, D = no activity noticed. Put shortly:
(§1)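 Read-out: percent larval mortality per well, averaged over 8 wells. Incubation 25° C., 14:10 L:D photoperiod, 5–7 days, trays sealed with clear adhesive cover.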

Data set [2] relates to Cabbage Looper (Trichoplusia ni) ("CL"), second instar larvae. The data set is described as follows: Bioassay on cabbage looper (CL), 128-well diet tray assay. Type of data set: in vivo. The conditions noted are these: for CL rating: C = not tested, D = no activity noticed. Put shortly: as §1
Where [3] appears, read: read-out: BAW (Biological Results, rating).
The mark [4] stands for this setting: Trichoplusia ni, read-out: CL (Biological Results, rating).
Where [5] appears, read: Trichoplusia ni, read-out: CL rating.

Like-named read-outs stand apart in the source and are kept apart here.

For the molecule `Cc1ccc(C(C)C)c(N2C(=O)CS/C2=N\C(=O)Nc2ccc(-c3ncn(-c4ccc(OCC(F)(F)F)cc4)n3)cc2F)c1` [Compound J57, (Z)-1-(2-Fluoro-4-(1-(4-(2,2,2-trifluoroethoxy)phenyl)-1H-1,2,4-triazol-3-yl)phenyl)-3-(3-(2-isopropyl-5-methylphenyl)-4-oxothiazolidin-2-ylidene)urea], the pest or weed control at 50 µg/cm2 in data set [1] (setting [3]) and in data set [2] (setting [4]) was 50 to 100% each time.

`Cc1cc(C)c(C)c(N2C(=O)CS/C2=N\C(=O)Nc2ccc(-c3ncn(-c4ccc(OC(F)(F)F)cc4)n3)cc2F)c1` [Compound J797, (Z)-1-(2-Fluoro-4-(1-(4-(trifluoromethoxy)phenyl)-1H-1,2,4-triazol-3-yl)phenyl)-3-(4-oxo-3-(2,3,5-trimethylphenyl)thiazolidin-2-ylidene)urea]: the “BAW rating (% control or mortality class)” value in data set [1] (Table ABC, species BAW, 128-well diet tray assay, second instar larvae) is “A (50-100)”. For the same molecule, the mortality – broadly, the share of the test organisms that died – at 50 µg/cm2 in data set [2] (Trichoplusia ni, Table ABC, species CL, 128-well diet tray assay, second instar larvae, read-out: CL rating (% control or mortality class)) lay within 50 to 100%.

On to `CCOC(C)c1ccc(C)cc1N1C(=O)CS/C1=N\C(=O)Nc1ccc(-c2ncn(-c3ccc(OC(F)(F)F)cc3)n2)cc1F` (stereo not drawn) [Compound J124, (Z)-1-(3-(2-(1-Ethoxyethyl)-5-methylphenyl)-4-oxothiazolidin-2-ylidene)-3-(2-fluoro-4-(1-(4-(trifluoromethoxy)phenyl)-1H-1,2,4-triazol-3-yl)phenyl)urea], for which the pest or weed control at 50 µg/cm2 in data set [1] (setting [3]) and in data set [2] (setting [4]) was 50 to 100% each time.

For the molecule `CC(C)c1ccc(C#N)cc1N1C(=O)CS/C1=N\C(=O)Nc1ccc(-n2cnc(-c3ccc(OC(F)(F)F)cc3)n2)cc1` [Compound J407, (Z)-1-(3-(5-Cyano-2-isopropylphenyl)-4-oxothiazolidin-2-ylidene)-3-(4-(3-(4-(trifluoromethoxy)phenyl)-1H-1,2,4-triazol-1-yl)phenyl)urea], the pest or weed control at 50 µg/cm2 in data set [1] (read-out: BAW rating) and in data set [2] (setting [5]) was 50 to 100% each time.

For the molecule `Cc1cc(COCC(F)(F)F)c(N2C(=O)CS/C2=N\C(=O)Nc2ccc(-c3ncn(-c4ccc(S(F)(F)(F)(F)F)cc4)n3)cc2F)cc1C` [Compound J497], the BAW rating entry in data set [1] (Table ABC, species BAW) is “A (50-100)”. Further, the CL rating result in data set [2] (Table ABC, species CL) is on record as “A (50-100)”.

`COC(C)c1ccc(C)cc1N1C(=O)CS/C1=N\C(=O)Nc1c(C)cc(-c2ncn(-c3ccc(OC(F)(F)F)cc3)n2)cc1C` (stereo not drawn) [Compound J97, (Z)-1-(2,6-Dimethyl-4-(1-(4-(trifluoromethoxy)phenyl)-1H-1,2,4-triazol-3-yl)phenyl)-3-(3-(2-(1-methoxyethyl)-5-methylphenyl)-4-oxothiazolidin-2-ylidene)urea]: the pest or weed control at 50 µg/cm2 in data set [1] (setting [3]) and in data set [2] (setting [4]) was 50 to 100% throughout.

With `COc1ccc(COCC(F)(F)F)c(N2C(=O)CS/C2=N\C(=O)Nc2ccc(-c3ncn(-c4ccc(C(F)(F)F)cc4)n3)cc2C)c1` [Compound J580], the BAW rating result in data set [1] (Table ABC, species BAW) is given as “A (50-100)”. For the same molecule, the CL rating entry in data set [2] (Table ABC, species CL) is given as “A (50-100)”.

Consider `Cc1ccc(OCCC(F)(F)F)c(N2C(=O)CS/C2=N\C(=O)Nc2ccc(-c3cn(-c4ccc(OC(F)(F)F)cc4)cn3)cc2F)c1` [Compound J476, (Z)-1-(2-Fluoro-4-(1-(4-(trifluoromethoxy)phenyl)-1H-imidazol-4-yl)phenyl)-3-(3-(5-methyl-2-(3,3,3-trifluoropropoxy)phenyl)-4-oxothiazolidin-2-ylidene)urea], for which the pest or weed control at 50 µg/cm2 in data set [1] (read-out: BAW rating) and in data set [2] (setting [5]) was 50 to 100% throughout.

For `CC(C)c1ccc(N(C)C)cc1N1C(=O)CS/C1=N\C(=O)Nc1c(F)cc(-c2ncn(-c3ccc(OC(F)(F)F)cc3)n2)cc1F` [Compound J82, (Z)-1-(2,6-Difluoro-4-(1-(4-(trifluoromethoxy)phenyl)-1H-1,2,4-triazol-3-yl)phenyl)-3-(3-(5-(dimethylamino)-2-isopropylphenyl)-4-oxothiazolidin-2-ylidene)urea], the pest or weed control at 50 µg/cm2 in data set [1] (setting [3]) and in data set [2] (setting [4]) was 50 to 100% throughout.
